The record followed here is patent US20200172489A1, “FLUORESCENT COMPOUND AND AUTOPHAGY DETECTION REAGENT USING SAME” (DOJINDO LABORATORIES, priority 2017, published 2020).

Where a name gives a salt, the structure may show the parent alone.

In data set [1] the test system is HeLa cells. The data set can be described thus: Autophagy detection test (4): staining of HeLa cells with Compound 4b and Compound 13, fluorescent microscopy. The conditions noted are these: Compound 4b 1 μM and Compound 13 0.1 μM; 3 hours or 6 hours; FIG. 12. Type of data set: cell-based. Here is the method: HeLa cells were seeded on a μ-slide 8 well (Ibidi) and incubated in a CO2 incubator at 37° C. overnight. Compound 4b (1 μM) or Compound 13 (0.1 μM) diluted with serum medium was added and incubated for 30 minutes. After washing twice with serum medium, the cells were incubated at 37° C. for 3 hours or 6 hours in an amino acid-free medium of serum containing-medium and observed with a fluorescent microscope.

Data set [2] is described as follows: pH dependence of fluorescent intensity of the fluorescent compounds. The class given is physicochemical. As to conditions: for pH dependence of fluorescent intensity: FIG. 6.
The test system of data set [3] is HeLa cells. The data set can be described thus: Autophagy detection test (1): fluorescent microscopy of HeLa cells after introducing the compound, with autophagy induced or inhibited. Type of data set: cell-based. As to conditions: for fluorescent intensity in HeLa cells in the presence of Bafilomycin: Bafilomycin (0.1 μM bafilomycin A1), autophagy hardly occurs; for fluorescent intensity in HeLa cells in the presence of Bafilomycin / fluorescent intensity in HeLa cells, control group / fluorescent intensity in HeLa cells under starvation condition / change of fluorescent intensity in HeLa cells when bafilomycin was added under starvation condition: FIG. 7; for fluorescent intensity in HeLa cells, control group: Control (autophagy hardly occurs); for fluorescent intensity in HeLa cells under starvation condition: Starved; for change of fluorescent intensity in HeLa cells when bafilomycin was added under starvation condition: starvation plus bafilomycin. The method, then: HeLa cells were seeded on a μ-slide 8 well (Ibidi) and incubated in a CO2 incubator at 37° C. overnight. Compound 4b (1 μM) or Compound 6h (0.1 μM) diluted with serum medium was added and incubated for 30 minutes. After washing twice with serum medium, the cells were incubated at 37° C. for 6 hours or 20 hours in an amino acid-free medium of serum containing-medium and observed with a fluorescent microscope. As an autophagy inducing agent, 0.5 μM Rapamycin was used and as an autophagy inhibiting agent, 10 μM chloroquine and 0.1 μM bafilomycin A1 were used.

Data set [4] relates to HeLa cells. The data set can be described thus: Autophagy detection test (2): fluorescent microscopy of HeLa cells under starvation condition. The class given is cell-based. The conditions noted are these: 0.1 μM; Starve vs Control; incubated 5 hours; FIG. 10. The method, then:
HeLa cells were seeded on a μ-slide 8 well (Ibidi) and incubated in a CO2 incubator at 37° C. overnight. Compound 6h diluted with a serum medium (0.1 μM) was added and incubated for 30 minutes. After washing twice with serum medium, the cells were incubated at 37° C. for 5 hours in an amino acid-free medium of serum containing-medium and observed with a fluorescent microscope.

In data set [5] the test system is HeLa cells. The data set can be described thus: Autophagy detection test (3): co-staining of HeLa cells with Compound 6h and Compound 11, fluorescent microscopy. Type of data set: cell-based. The conditions noted are these: Compound 6h 1 μM and Compound 11 0.1 μM; 3 hours or 6 hours; FIG. 11. Here is the method: HeLa cells were seeded on a μ-slide 8 well (Ibidi) and incubated in a CO2 incubator at 37° C. overnight. Compound 6h (1 μM) and Compound 11 (0.1 μM) diluted with serum medium was added and incubated for 30 minutes. After washing twice with serum medium, the cells were incubated at 37° C. for 3 hours or 6 hours in an amino acid-free medium of serum containing-medium and observed with a fluorescent microscope.

The test system of data set [6] is HeLa cells. In words: Autophagy detection test (1): evaluation using flow cytometry. Type of data set: cell-based. As to conditions: 1 μM; starvation condition, 6 hours and 20 hours; FIG. 3. The method, then: HeLa cells were seeded on a 24 well plate and incubated in a CO2 incubator at 37° C. overnight, 1 μM of Compound 4b diluted with serum medium was added and incubated for 30 minutes. After washing twice with the serum-free medium, a medium free from amino acid and serum was added and the cells were incubated at 37° C. for 6 hours or 20 hours. Cell were washed with PBS once, peeled with 0.25% trypsin-EDTA and used for flow cytometric analysis.

As for `CCCCCN1C(=O)c2ccc3c4cccc5c(NCCCCCN)ccc(c6ccc(c2c36)C1=O)c54` [Compound 13, 5-((1,3-dioxo-2-pentyl-2,3-dihydro-1H-benzo[10,5]anthra[2,1,9-def]isoquinolin-8-yl)amino)pentane-1-amine hydrochloric salt], the “staining pattern in HeLa cells under starvation condition, two compounds introduced together” value (shortened to “staining pattern in HeLa cells”) in data set [1] was “granular points co-stained by Compound 4b and Compound 13”. In addition, the “pH dependence of fluorescent intensity” value in data set [2] was “no pH dependence”.
As to `CCCCCN1C(=O)c2cccc3c(NCCCCCN)ccc(c23)C1=O` [Compound 6h, hydrochloride salt], in data set [3], the “fluorescent intensity in HeLa cells in the presence of Bafilomycin” value is listed as “low”; the “fluorescent intensity in HeLa cells, control group” value is reported as “low”; the “change of fluorescent intensity in HeLa cells when bafilomycin was added under starvation condition” value is given as “did not decrease”. For the same compound, the “shape of fluorescent emission in high-magnification fluorescent microscopic images” value in data set [3] (HeLa cells, autophagy induced, FIG. 8, A-1 and A-2) is listed as “ring-shaped fluorescent emission”. Moreover, the “fluorescent intensity in HeLa cells under starvation condition” value in data set [3] (autophagy induced) is “high”. Besides, the “fluorescent intensity in HeLa cells under starvation condition” value in data set [4] is recorded as “enhancement of the fluorescent intensity was observed”. Moreover, in data set [5], the “staining pattern in HeLa cells” value is “granular points stained only by Compound 6h and granular points co-stained by Compound 6h and Compound 11”. Also, the “pH dependence of fluorescent intensity” value in data set [2] is given as “no pH dependence”.
Regarding `CCCCCN1C(=O)c2ccc3c4cccc5c(N6CCN(CCN)CC6)ccc(c6ccc(c2c36)C1=O)c54` [Compound 11, 8-(4-(2-aminoethyl)piperazin-1-yl)-2-pentyl-1H-benzo[10,5]anthra[2,1,9-def]isoquinolin-1,3(2H)-dione], the “staining pattern in HeLa cells” value in data set [5] is “granular points co-stained by Compound 6h and Compound 11”. The “pH (acidic condition) under which the fluorescent intensity increases” value in data set [2] (FIG. 1 / FIG. 9) is reported as no more than 6.
`CCCCCN1C(=O)c2cccc3c(N4CCN(CCN)CC4)ccc(c23)C1=O` [Compound 4b, 2-(4-(1,3-dioxo-2-pentyl-2,3-dihydro-1H-benzo[de]isoquinolin-6-yl)piperazin-1-yl)ethane-1-amine hydrochloride salt]: in data set [3], the “fluorescent intensity in HeLa cells in the presence of Bafilomycin” value is recorded as “low”; the “fluorescent intensity in HeLa cells, control group” value is given as “low”; the “change of fluorescent intensity in HeLa cells when bafilomycin was added under starvation condition” value was “decreased”. Besides, the “fluorescent intensity in HeLa cells, autophagy induced by adding Rapamycin” value in data set [3] (Rapamycin & Chloroquine group vs Control, 0.5 μM Rapamycin, 10 μM chloroquine, incubated 6 hours and 20 hours, FIG. 2) is on record as “enhancement of the fluorescent intensities was observed”. In addition, the “fluorescent intensity in HeLa cells, autophagy induced by starvation culture” value in data set [3] (Starved group vs Control, incubated 6 hours and 20 hours, FIG. 2) is “enhancement of the fluorescent intensities was observed”. In addition, the “fluorescent intensity in HeLa cells under starvation condition” value in data set [3] (autophagy induced) was “high”. The “staining pattern in HeLa cells” value in data set [1] was “granular points stained only by Compound 4b and granular points co-stained by Compound 4b and Compound 13”. The “usefulness for detecting autophagy by flow cytometry” value in data set [6] is listed as “useful for detecting autophagy using not only fluorescent microscopy but also flow cytometry”.
